{
  "source": "patent US4866161A",
  "about": "“Inhibition of tartar deposition by polyanionic/hydrophobic peptides and derivatives thereof which have a clustered block copolymer structure” (University of South Alabama, priority 1987, dated 1989)",
  "key": {"[1]": {"test": "pH-drift assay, calcium carbonate", "protocol": "A solution supersaturated with respect to CaCO03 is prepared by separately pipetting 0.3 ml of 1.0 M CaCl2 dihydrate and 0.6 ml of 0.5 M NaHCO3 into 29.1 ml of artificial seawater (0.5 NaCl, 0.011 M KCl). The reaction vessel is a 50 ml, 3-necked, round-bottom flask partially immersed in a thermostated water bath at 20° C. The reaction vessel is closed to the atmosphere to minimize exchange of CO2 The reaction is started by adjusting the pH upward to 8.3 by titration of μl amounts of 1 N NaOH by digital pipette. The initial concentrations are 10 mM each of Ca^2+ and dissolved inorganic carbon (DIC). The reaction is monitored by pH electrode and recorded by strip chart.\nThe reaction may be quantified by calculations based on DIC equilibria to give the amount of precipitation versus time.\nThe conditions of the assay were […] dissolved inorganic carbon at 20° C. and 30 ml of artificial seawater (0.5 M NaCl, 0.01 M KCl)."}, "[2]": {"test": "pH-drift assay, calcium phosphate", "protocol": "A solution supersaturated with respect to calcium phosphate is prepared by separately pipetting 0.1 ml of 1.32 M CaCl2 dihydrate and 0.1 ml of 0.90 M NaHl PO4 into 29.8 ml of distilled water. This yields initial concentrations of 4.4 mM Ca^2+ and 3.0 mM dissolved inorganic phosphorus (DIP). The reaction vessel is a 50 ml, round-bottom, 3-necked flask partially immersed in a thermostated water bath at 20° C. The reaction vessel is closed to the atmosphere. The reaction begins upon mixing the reactants with an initial pH of 7.4.\nAmorphous calcium phosphate (ACP) nucleates immediately and slowly grows as indicated by a slight decrease in pH during the first 30 minutes or so of the assay. Following this, ACP begins to transform to calcium hydroxylapatite (HAP), Ca10 (PO4)6 (OH)2, as indicated by a marked acceleration in the downward pH drift. The reaction ceases as reactants are depleted and the pH is lowered.\n^1 Assay Conditions: Ca at 4.4 mM, dissolved inorganic phosphorus at […]"}, "[3]": {"test": "constant composition assay, CaCO3", "details": "FIG. 5, pH 8.30 held constant, 20° C., doses matched for about 2 hours stabilization", "protocol": "A 50 ml solution of 10 mM CaCl2 and 10 mM dissolved inorganic carbon (DIC) was adjusted to pH 8.34 by digital pipetting of μl amounts of 1 N NaOH. The temperature was held constant at 20° C. using a water-jacketed reaction vessel and a thermostated bath. After about a 6 minute period during which CaCO3 nucleation occurs, the pH beings to drift downward as Ca^2+ and CO3^2- ions are removed from solution as solid crystals. At pH 8.30, inhibitors were added which stabilized the pH drift for certain periods of time. The concentrations of inhibitors used in the experiments shown in FIG. 5 were matched so that the amount of stabilization or inhibition of nucleation was the same, in this case about 2 hours. The doses required for this effect ranged between 0.1 to 0.5 μg/ml of inhibitor depending on the type When crystallization began again, the pH would drift downward. However, it was held constant at pH 8.30±0.02 by automatic titration of 0.5 M CaCl2 and 0.5 M NaCO3 from separate burettes linked via the pH electrode to a computer-assisted titrimeter."}, "[4]": {"details": "inhibitor 37 μg/ml; adapted from Hay et al. 1979; cited from earlier work"}},
  "note": "Like-named read-outs stand apart in the source and are kept apart here. Ends that are not written are not given here.",
  "data": [
    {"molecule": "DDDDDDDDDDDDDDDDDDDD [H--(ASP)20--OH, poly (Asp)20]", "values": [
      {"measurement": "CRYSTAL GROWTH RATE", "setting": "[1]; peptide 0.02 μg/ml", "value": "0.047 ± 0.0030", "unit": "pH/MIN"},
      {"measurement": "INDUCTION PERIOD", "setting": "[1]; peptide 0.02 μg/ml", "value": "21.5 ± 0.50", "unit": "min"},
      {"measurement": "CRYSTAL GROWTH RATE", "setting": "[1]; peptide 0.035 μg/ml", "value": "0.041 ± 0.0050", "unit": "pH/MIN"},
      {"measurement": "INDUCTION PERIOD", "setting": "[1]; peptide 0.035 μg/ml", "value": "39.2 ± 10.8", "unit": "min"},
      {"measurement": "INDUCTION PERIOD", "setting": "[1]; peptide 0.050 μg/ml", "value": "> 180", "unit": "min"}
    ]},
    {"molecule": "Polyaspartate [Polyaspartate, MW 15,000]", "values": [
      {"measurement": "pH/min, ACP FORMATION", "setting": "[2]; inhibitor 10 μg/ml", "value": 0.0040, "unit": "pH/min"},
      {"measurement": "pH/min, APATITE FORMATION", "setting": "[2]; inhibitor 10 μg/ml", "value": 0.106, "unit": "pH/min"},
      {"measurement": "PERIOD OF ACP FORMATION", "setting": "[2]; inhibitor 10 μg/ml, Ca 4.4 mM, DIP 3.0 mM, initial pH 7.40, 20° C.", "value": 30, "unit": "min"},
      {"measurement": "PERIOD OF ACP FORMATION", "setting": "[2]; inhibitor 15 μg/ml", "value": 48, "unit": "min"},
      {"measurement": "pH/min, ACP FORMATION", "setting": "[2]; inhibitor 15 μg/ml", "value": 0.0050, "unit": "pH/min"},
      {"measurement": "pH/min, APATITE FORMATION", "setting": "[2]; inhibitor 15 μg/ml", "value": 0.070, "unit": "pH/min"}
    ]},
    {"molecule": "AAAAAAAAAADDDDDDDDDD [H--(Ala)10 --(Asp)10 --OH]", "values": [
      {"measurement": "inhibitory activity on CaCO3 crystallization, comparison of Table 1 in words", "setting": "[1]; Table 1", "value": "decreased activity"}
    ]},
    {"molecule": "SDSDSDSDSDSDSDSDSDSD [H--(SER--ASP)10 --OH]", "values": [
      {"measurement": "CRYSTAL GROWTH RATE", "setting": "[1]; peptide 0.1 μg/ml", "value": "0.048 ± 0.0040", "unit": "pH/MIN"},
      {"measurement": "INDUCTION PERIOD", "setting": "[1]; peptide 0.1 μg/ml", "value": "29.8 ± 4.99", "unit": "min"}
    ]},
    {"molecule": "Polyaspartate [matrix analog]", "values": [
      {"measurement": "rate of crystallization after the period of stabilization", "setting": "[3]", "value": "not observed"}
    ]},
    {"molecule": "AAAAAAGDGDGDGDGDGDGD [H--(ALA)6 --(GLY-13 ASP)7 --OH, poly (Asp-Gly)7 (Ala)6]", "values": [
      {"measurement": "inhibition of crystal nucleation (duration of induction period), in words", "setting": "[1]; FIG. 6, equal doses, artificial seawater, 20° C.", "value": "very little activity relative to the control curve"},
      {"measurement": "CRYSTAL GROWTH RATE", "setting": "[1]; peptide 0.20 μg/ml", "value": "0.048 ± 0.0042", "unit": "pH/MIN"},
      {"measurement": "INDUCTION PERIOD", "setting": "[1]; peptide 0.20 μg/ml", "value": "7.2 ± 0.83", "unit": "min"}
    ]},
    {"molecule": "GSDGSDGSDGSDGSDGSDGSD [H--(GLY--SER--ASP)7 --OH]", "values": [
      {"measurement": "CRYSTAL GROWTH RATE", "setting": "[1]; peptide 0.1 μg/ml", "value": "0.057 ± 0.0034", "unit": "pH/MIN"},
      {"measurement": "INDUCTION PERIOD", "setting": "[1]; peptide 0.1 μg/ml", "value": "5.83 ± 1.04", "unit": "min"}
    ]},
    {"molecule": "O=P(O)(O)CN(CCN(CP(=O)(O)O)CP(=O)(O)O)CCN(CP(=O)(O)O)CP(=O)(O)O", "note": "[DENTPP, diethylene triamine pentamethylene phosphonic acid]", "values": [
      {"measurement": "PERIOD OF ACP FORMATION", "setting": "[2]; inhibitor 5 μg/ml", "value": 100, "unit": "min"},
      {"measurement": "pH/min, ACP FORMATION", "setting": "[2]; inhibitor 5 μg/ml", "value": 0.0012, "unit": "pH/min"},
      {"measurement": "pH/min, APATITE FORMATION", "setting": "[2]; inhibitor 5 μg/ml", "value": 0.019, "unit": "pH/min"}
    ]},
    {"molecule": "Statherin: salivary protein, most effective inhibitor among salivary proteins that regulate mineral deposition in the oral cavity (DSSEEKFLRRIGRFGYGYGPYQPVPEQPLYPQPYQPQYQQYTF; UniProt P02808 20-62, looked up)", "values": [
      {"measurement": "PERIOD OF ACP FORMATION", "setting": "[4]", "value": 48, "unit": "min"},
      {"measurement": "pH/min, ACP FORMATION", "setting": "[4]", "value": 0.0045, "unit": "pH/min"},
      {"measurement": "pH/min, APATITE FORMATION", "setting": "[4]", "value": 0.0090, "unit": "pH/min"}
    ]},
    {"molecule": "H--(ALA)10 (ASP)15 --OH", "values": [
      {"measurement": "CRYSTAL GROWTH RATE", "setting": "[1]; peptide 0.050 μg/ml", "value": "0.042 ± 0.0039", "unit": "pH/MIN"},
      {"measurement": "INDUCTION PERIOD", "setting": "[1]; peptide 0.050 μg/ml", "value": "32.0 ± 10.4", "unit": "min"}
    ]},
    {"molecule": "GDGDGDGDGDGDGDGDGDGD [H--(GLY--ASP)10 --OH]", "values": [
      {"measurement": "CRYSTAL GROWTH RATE", "setting": "[1]; peptide 0.1 μg/ml", "value": "0.047 ± 0.0097", "unit": "pH/MIN"},
      {"measurement": "INDUCTION PERIOD", "setting": "[1]; peptide 0.1 μg/ml", "value": "36.0 ± 5.20", "unit": "min"}
    ]}
  ]
}
